In US20050090433A1 (priority 2002, published 2005):
Several values for one entry are separate records, joined by “and”; a condition that tells them apart may be missing. Identical values can stand only once.

Columns and labels:
[1] = tested on: N,N′-diacetyl-Lys-D-Ala-D-Ala; assay: ITC of binding to tri-peptide, with and without HSA
Method: Antibiotics and peptides were dissolved in aqueous buffer (20 mM Na phosphate, 150 mM NaCl, pH 7.4) containing HSA, with gentle stirring immediately before each experiment. Peptide concentrations were determined by weight. […] HSA concentrations were determined by UV absorbance (HSA, ε280=37,700; A280^1%=5.44). Spectra were recorded at room temperature in 1 cm pathlength quartz cuvettes using Shimadzu UV-160A or UV-1601 spectrophotometers, with samples diluted quantitatively with buffer if necessary to give absorbance in the 0.1-1 A range.
Isothermal titration calorimetry was performed using a Microcal VP-ITC instrument at 25° C. and 37° C. using standard operating procedures. […] Samples were degassed gently prior to loading to prevent bubble formation in the calorimeter cell.

D-Ala-D-Ala = assay: ITC of binding to dipeptide; conditions: absence of serum proteins
Source text: (§1) Trans. R. Soc. Lond. Ser. A-Math. Phys. Eng. […] Wiley, (1998) p 103-111; and Cooper, A., Curr. Opin. Chem. Biol. (1999) 3, 557-563.

Lys-D-Ala-D-Lactate = assay: ITC of binding to Lys-D-Ala-D-Lactate; conditions: absence of serum proteins
Source text: as §1

Human albumin = Human albumin (Homo sapiens, UniProt P02768); assay: Protein binding by isothermal titration microcalorimetry; conditions: for Calculated percent Binding, Human albumin: albumin 6×10^−4 M assumed
Chain of Human albumin (P02768 25-609): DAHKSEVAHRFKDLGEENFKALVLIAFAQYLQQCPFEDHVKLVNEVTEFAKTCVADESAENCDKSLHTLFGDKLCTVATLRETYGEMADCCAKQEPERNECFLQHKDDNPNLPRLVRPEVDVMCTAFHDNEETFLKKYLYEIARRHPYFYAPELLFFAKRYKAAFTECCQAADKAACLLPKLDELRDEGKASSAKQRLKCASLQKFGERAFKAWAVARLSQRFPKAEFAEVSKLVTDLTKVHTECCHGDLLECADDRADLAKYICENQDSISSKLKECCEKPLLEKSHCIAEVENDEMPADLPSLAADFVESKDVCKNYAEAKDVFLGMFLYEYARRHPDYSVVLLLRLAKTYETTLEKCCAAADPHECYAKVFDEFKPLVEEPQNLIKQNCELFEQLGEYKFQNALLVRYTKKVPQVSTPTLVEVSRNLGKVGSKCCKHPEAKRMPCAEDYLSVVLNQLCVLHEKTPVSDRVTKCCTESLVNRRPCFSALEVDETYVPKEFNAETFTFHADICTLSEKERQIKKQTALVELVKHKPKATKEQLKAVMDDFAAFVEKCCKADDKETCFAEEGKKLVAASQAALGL
Method: (§2) Integrated heat effects, after correction for heats of dilution, were analyzed by non-linear regression using a simple single-site binding model with the standard Microcal ORIGIN software package. Raw data (μcal/sec) for each injection were integrated to give the total heat effect per addition, then divided by amount of injectant to give kcal/mole of injectant. The same integration was applied for control dilution effects, and this was subtracted from the actual titration data. This provided a differential of the binding curve in which the extent of binding is proportional to the total heat liberated (or absorbed). This was then analyzed by non-linear regression methods in terms of various standard binding models.

human α-glycoprotein = assay: as above; conditions: protein […]10^−5 M assumed
Method: as §2

[2] = Multimer to monomer population by electrospray ion mass spectroscopy; assay type: physicochemical; conditions: dalbavancin 0.1 mg/ml in 8:2 water:isopropanol; teicoplanin 50 and 100 μg/mL in water
Method: Experiments were performed using an Applied Biosystem API III+mass spectrometer equipped with a TurboIonSpray source, a Triple Quadrupole analyzer, operating in positive ion mode.
The mass spectra were obtained in electrospray positive mode on a Finnigan LCQ^Deca ion trap instrument previously tuned and calibrated in electrospray mode using Ultramark 1621, caffeine and MRFA (L-metionyl-arginyl-phenilalanyl-arginine).
The mass spectra were obtained in electrospray positive mode on a Finnigan LCQ^Deca ion trap instrument previous tuned and calibrated in electrospray mode using Ultramark 1621, caffeine and MRFA (L-metionyl-arginyl-phenilalanyl-arginine).

[3] = target: N,N′-diacetyl-Lys-D-Ala-D-Ala; assay: ITC, 25 C, with 513 uM HSA
[4] = target: N,N′-diacetyl-Lys-D-Ala-D-Ala; assay: ITC, 25 C, 0 uM HSA
[5] = target: N,N′-diacetyl-Lys-D-Ala-D-Ala; assay: ITC, 10 C, 0 uM HSA

CN[C@H](CC(C)C)C(=O)N[C@H]1C(=O)N[C@@H](CC(N)=O)C(=O)N[C@H]2C(=O)N[C@H]3C(=O)N[C@H](C(=O)N[C@H](C(=O)O)c4cc(O)cc(O)c4-c4cc3ccc4O)[C@H](O)c3ccc(c(Cl)c3)Oc3cc2cc(c3O[C@@H]2O[C@H](CO)[C@@H](O)[C@H](O)[C@H]2O[C@H]2C[C@](C)(N)[C@H](O)[C@H](C)O2)Oc2ccc(cc2Cl)[C@H]1O [Vancomycin]
Kass ([1]; 10 °C, [HSA] 0 μM): 6.90E+05 L M^−1
Kass ([1]; 25 °C, [HSA] 0 μM): 3.40E+05 L M^−1 and 3.60E+05 L M^−1
Kass ([1]; 25 °C, [HSA] 513 μM): 2.90E+05 L M^−1
Binding to tri-peptide in the presence of HSA vs absence ([1]; control ITC experiments): comparable to those seen in the absence of HSA
Binding to dipeptide (D-Ala-D-Ala) (D-Ala-D-Ala): no evidence of binding
Binding to Lys-D-Ala-D-Lactate (Lys-D-Ala-D-Lactate): no evidence of binding

Teicoplanin
Apparent binding affinity Ka, Human albumin (Human albumin; 25° C., pH 7.4, ± SD of fit): 0.96 (±0.08) ×10^5 M^−1
Calculated percent Binding, Human albumin (Human albumin; antibiotic 1 μM): 98.3%
Calculated percent Binding, Human albumin (Human albumin; antibiotic 10 μM): 98.3%
Calculated percent Binding, Human albumin (Human albumin; antibiotic 100 μM): 98.0%
Calculated percent Binding, Human α-glycoprotein (human α-glycoprotein; antibiotic 1 μM): 9.6%
Calculated percent Binding, Human α-glycoprotein (human α-glycoprotein; antibiotic 10 μM): 9.1%
Calculated percent Binding, Human α-glycoprotein (human α-glycoprotein; antibiotic 100 μM): 6.0%
Multimers in solution (ESI-MS) [2]: does not show multimeric complexes in solution

vancomycin hydrochloride (peptide)
Kd [3]: 3450 nM
ΔH [3]: -10.1 kcal/mol
ΔS [3]: -8.8 eu
Kd [4]: 2940 nM and 2780 nM
ΔH [4]: -10.7 kcal/mol and -12.9 kcal/mol
ΔS [4]: -10.6 eu and -17.8 eu
Kd [5]: 1450 nM
ΔH [5]: -9.49 kcal/mol
ΔS [5]: -6.8 eu
